# Reference: patent US20030040534A1, “Enantiomers of N-[[2'-[[(4,5-dimethyl-3-isoxazolyl)amino]sulfonyl]-4-(2-oxazolyl)[1,1'-biphenyl]-2-yl]methyl]-N,3,3-trimethylbutanamide” (priority 2001, published 2003)
# Where two headings read alike, the source gives them in different places.
# What was measured:
# [1] = In vitro interconversion (racemization) of enantiomeric atropisomers under pseudo-physiological conditions, chiral HPLC
# Procedure: The in vitro interconversion of N-[[2′-[[(4,5-dimethyl-3-isoxazolyl)amino]sulfonyl]-4-(2-oxazolyl)[1,1′-biphenyl]-2-yl]methyl]-N,3,3-trimethylbutanamide enantiomeric atropisomers was investigated using normal phase chiral HPLC with ultraviolet and laser polarimetric detection, under pseudo-physiological conditions, i.e., aqueous medium at 37° C., gastric fluid at 37° C. and human serum at 37° C.
# [2] = target: T1, human endothelin A receptor (Homo sapiens, UniProt P25101); experiment: In vitro ETA binding, attached cell assay, [125I]-ET-1 competition
# T1 construct: expressed in transfected cells; host or cells: CHO-K1 (G-418 selected)
# T1 sequence (P25101 21-427): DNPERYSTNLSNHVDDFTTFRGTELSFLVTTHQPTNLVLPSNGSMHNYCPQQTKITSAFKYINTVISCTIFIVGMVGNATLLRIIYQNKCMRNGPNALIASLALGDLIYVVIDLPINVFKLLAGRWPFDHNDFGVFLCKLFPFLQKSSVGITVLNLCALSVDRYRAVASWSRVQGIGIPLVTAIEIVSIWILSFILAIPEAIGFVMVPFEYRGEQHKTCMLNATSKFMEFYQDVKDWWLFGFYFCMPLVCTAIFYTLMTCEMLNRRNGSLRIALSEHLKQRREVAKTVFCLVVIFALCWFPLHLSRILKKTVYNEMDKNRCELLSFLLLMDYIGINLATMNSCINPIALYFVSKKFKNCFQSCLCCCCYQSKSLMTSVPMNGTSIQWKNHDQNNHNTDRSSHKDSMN
# Procedure: The isolated atropisomers of Example 2 were tested for in vitro ETA binding according to the following procedure:
# CHO-K1 cells expressing the human endothelin A receptor were cultured in Ham's F12 media (Gibco/BRL, Grand Island, N.Y.) with 10% fetal bovine serum (Hyclone), supplemented with 300 μg/mL Geneticin (G-418 Gibco BRL Products, Grand Island, N.Y.) and maintained at 37° C. with 5% CO2 in a humidified incubator. Forty eight hours prior to assay, the cells were treated with 0.25% trypsin-EDTA and were seeded in Falcon, 96 well tissue culture plates at a density of 1.5×10^4 cells/well (the monolayer should reach 80-90% confluency by the day of assay).
# In the attached cell assay, culture media was aspirated from each well and the monolayers were washed with 75 μl of room temperature PBS (Mg^++, Ca^++ free). After the addition of 75 μl of cold binding buffer to each well, the plate was chilled at 4° C. for 3 minutes before the addition of competing drugs and isotope. The binding assay was performed in a total volume of 125 μl consisting of assay buffer, maintained at 4° C. (50 mM Tris, pH 7.4, including 1% BSA, and 2 μM phosphoramidon), and 25 μl of either 500 nM ET-1 (to define nonspecific binding) or competing drugs. The reaction was initiated with the addition of 25 μl of 0.25 nM [^125I]-ET-1 (New England Nuclear). Incubation was carried out with gentle orbital shaking, at 4° C., reaching equilibrium at 4 hours. The reaction was terminated by aspiration of the reaction buffer and two subsequent washes with room temperature PBS (Mg^++, Ca^++ free). The cells were dissociated by the addition of 100 μl of 0.5N NaOH followed by incubation for 40 minutes. Samples were then transferred from the 96 well format into tubes for counting in a Cobra gamma counter (Packard). Data was analyzed with curve fitting software by Sigma plot.
# In each assay run that was performed, one sample of each atropisomer as well as one sample of racemate was tested for activity.
# [3] = Table 1, 97% pure atropisomers of Example 2, Run 1, CHO-K1 cells expressing human ETA, 4° C., read-out: IC50 (nM) Run 1
# [4] = Table 1, 97% pure atropisomers of Example 2, Run 2, read-out: IC50 (nM) Run 2
# [5] = Table 1, 97% pure atropisomers of Example 2, Run 3, read-out: IC50 (nM) Run 3
# [6] = Table 1, 97% pure atropisomers of Example 2, Run 4, read-out: IC50 (nM) Run 4
# [7] = Table 2, 99.2% pure atropisomers of Example 2, Run 1, read-out: IC50 (nM) Run 1
# [8] = Table 2, 99.2% pure atropisomers of Example 2, Run 2, read-out: IC50 (nM) Run 2
# [9] = Table 2, 99.2% pure atropisomers of Example 2, Run 3, read-out: IC50 (nM) Run 3
# [10] = Table 2, 99.2% pure atropisomers of Example 2, Run 4, read-out: IC50 (nM) Run 4
# [11] = Table 2, 99.2% pure atropisomers of Example 2, Run 5, read-out: IC50 (nM) Run 5
# [12] = Table 2, 99.2% pure atropisomers of Example 2, Run 6, read-out: IC50 (nM) Run 6
# [13] = Table 2, 99.2% pure atropisomers of Example 2, Run 7, read-out: IC50 (nM) Run 7
# [14] = Table 2, 99.2% pure atropisomers of Example 2, Run 8, read-out: IC50 (nM) Run 8
# [15] = Table 2, 99.2% pure atropisomers of Example 2, Run 9, read-out: IC50 (nM) Run 9
Compound,"IC50 [2, 3] [nM]","IC50 [2, 4] [nM]","IC50 [2, 5] [nM]","IC50 [2, 6] [nM]","IC50 [2, 7] [nM]","IC50 [2, 8] [nM]","IC50 [2, 9] [nM]","IC50 [2, 10] [nM]","IC50 [2, 11] [nM]","IC50 [2, 12] [nM]","IC50 [2, 13] [nM]","IC50 [2, 14] [nM]","IC50 [2, 15] [nM]",other results
"Cc1onc(NS(=O)(=O)c2ccccc2-c2ccc(-c3ncco3)cc2CN(C)C(=O)CC(C)(C)C)c1C (racemic) [Racemate, N-[[2′-[[(4,5-dimethyl-3-isoxazolyl)amino]sulfonyl]-4-(2-oxazolyl)[1,1′-biphenyl]-2-yl]methyl]-N,3,3-trimethylbutanamide]",,,,,,,,,,,,,,"half-life [1]: 15.8 h; half-life ([1]; buffer): ~15 h; IC50 ([2]; IC50 (nM) Run 1, Table 1, 97% pure atropisomers of Example 2, Run 1, CHO-K1 cells expressing human ETA, 4° C.): 0.12 nM; IC50 ([2]; IC50 (nM) Run 1, Table 2, 99.2% pure atropisomers of Example 2, Run 1): 0.018 nM; IC50 ([2]; IC50 (nM) Run 2, Table 1, 97% pure atropisomers of Example 2, Run 2): 0.24 nM; IC50 ([2]; IC50 (nM) Run 2, Table 2, 99.2% pure atropisomers of Example 2, Run 2): 0.08 nM; IC50 ([2]; IC50 (nM) Run 3, Table 1, 97% pure atropisomers of Example 2, Run 3): 0.21 nM; IC50 ([2]; IC50 (nM) Run 3, Table 2, 99.2% pure atropisomers of Example 2, Run 3): 0.4 nM; IC50 ([2]; IC50 (nM) Run 4, Table 1, 97% pure atropisomers of Example 2, Run 4): 0.1 nM; IC50 ([2]; IC50 (nM) Run 4, Table 2, 99.2% pure atropisomers of Example 2, Run 4): 0.3 nM; IC50 ([2]; IC50 (nM) Run 5, Table 2, 99.2% pure atropisomers of Example 2, Run 5): 0.2 nM; IC50 ([2]; IC50 (nM) Run 6, Table 2, 99.2% pure atropisomers of Example 2, Run 6): 0.4 nM; IC50 ([2]; IC50 (nM) Run 7, Table 2, 99.2% pure atropisomers of Example 2, Run 7): 0.24 nM; IC50 ([2]; IC50 (nM) Run 8, Table 2, 99.2% pure atropisomers of Example 2, Run 8): 0.16 nM; IC50 ([2]; IC50 (nM) Run 9, Table 2, 99.2% pure atropisomers of Example 2, Run 9): 0.27 nM"
"Cc1onc(NS(=O)(=O)c2ccccc2-c2ccc(-c3ncco3)cc2CN(C)C(=O)CC(C)(C)C)c1C (single isomer, unassigned) [97% pure (+) dextrorotatory, N-[[2′-[[(4,5-dimethyl-3-isoxazolyl)amino]sulfonyl]-4-(2-oxazolyl)[1,1′-biphenyl]-2-yl]methyl]-N,3,3-trimethylbutanamide]",0.03,0.01,0.01,0.01,0.002,0.002,0.7,0.1,0.3,0.38,0.34,0.38,0.41,"potency compared with the (−) levorotatory atropisomer or the racemate ([2]; endothelin antagonist, statement in words): remarkably higher potency"
"Cc1onc(NS(=O)(=O)c2ccccc2-c2ccc(-c3ncco3)cc2CN(C)C(=O)CC(C)(C)C)c1C (single isomer, unassigned) [97% pure (−) levorotatory, N-[[2′-[[(4,5-dimethyl-3-isoxazolyl)amino]sulfonyl]-4-(2-oxazolyl)[1,1′-biphenyl]-2-yl]methyl]-N,3,3-trimethylbutanamide]",0.41,0.9,0.6,1.4,0.1,0.65,6,5,7,3.7,21,14,19,
